Assay [1] deals with T1, Gonadotropin-releasing hormone receptor (Rattus norvegicus, UniProt P30969).
T1 sequence (P30969 whole entry): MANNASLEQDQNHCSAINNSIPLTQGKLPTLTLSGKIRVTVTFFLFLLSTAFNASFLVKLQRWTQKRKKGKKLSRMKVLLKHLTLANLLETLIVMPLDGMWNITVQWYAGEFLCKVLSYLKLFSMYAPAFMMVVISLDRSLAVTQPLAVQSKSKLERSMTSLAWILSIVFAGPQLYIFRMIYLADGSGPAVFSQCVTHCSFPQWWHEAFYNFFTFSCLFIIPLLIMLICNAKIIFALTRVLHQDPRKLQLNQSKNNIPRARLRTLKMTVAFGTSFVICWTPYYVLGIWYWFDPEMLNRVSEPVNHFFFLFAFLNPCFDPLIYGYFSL
Description: Affinity for rat gonadotrophin releasing hormone (GnRH) receptor using HEK293 cells transfected with rat Gonadotropin-releasing hormone receptor. Format: cell-based. The conditions noted are these: hek293.

The species entered for assay [2] is Rattus norvegicus. Description: Antiovulatory potency at 10 ug/rat expressed as rats ovulating by total no. of rats (5/6). Format: functional.
For assay [3], the species on record is Rattus norvegicus. As to the kind of experiment: Antiovulatory potency at 25 ug/rat expressed as rats ovulating by total no. of rats (7/8). Type of assay: functional.
The species named for assay [4] is Rattus norvegicus. As to the kind of experiment: Antiovulatory potency at 50 ug/rat expressed as rats ovulating by total no. of rats (0/6). Type of assay: functional.
The species entered for assay [5] is Rattus norvegicus. Description: Antiovulatory potency at 25 ug/rat expressed as rats ovulating by total no. of rats (3/6). Format: functional.
The species named for assay [6] is Rattus norvegicus. Description: Antiovulatory potency at 100 ug/rat expressed as rats ovulating by total no. of rats (0/3). Format: functional.
The species entered for assay [7] is Rattus norvegicus. Description: Antiovulatory potency at 50 ug/rat expressed as rats ovulating by total no. of rats (2/5). Format: functional.
The species entered for assay [8] is Rattus norvegicus. Description: Antiovulatory potency at 10 ug/rat expressed as rats ovulating by total no. of rats (3/3). Format: functional.
For assay [9], the species on record is Rattus norvegicus. Description: Antiovulatory potency at 100 ug/rat expressed as rats ovulating by total no. of rats (2/6). Format: functional.
Assay [10] is filed under the species Rattus norvegicus. As to the kind of experiment: Antiovulatory potency at 250 ug/rat expressed as rats ovulating by total no. of rats (3/6). Type of assay: functional.
The species named for assay [11] is Rattus norvegicus. As to the kind of experiment: Antiovulatory potency at 25 ug/rat expressed as rats ovulating by total no. of rats (4/4). Type of assay: functional.
The species named for assay [12] is Rattus norvegicus. Description: Antiovulatory potency at 50 ug/rat expressed as rats ovulating by total no. of rats (4/8). Format: functional.
The species entered for assay [13] is Rattus norvegicus. Description: Antiovulatory potency at 100 ug/rat expressed as rats ovulating by total no. of rats (0/8). Format: functional.
The species named for assay [14] is Rattus norvegicus. As to the kind of experiment: Antiovulatory potency at 2.5 ug/rat expressed as rats ovulating by total no. of rats (0/5). Format: functional.
For assay [15], the species on record is Rattus norvegicus. Description: Antiovulatory potency at 5 ug/rat expressed as rats ovulating by total no. of rats (1/8). Type of assay: functional.
The species named for assay [16] is Rattus norvegicus. As to the kind of experiment: Antiovulatory potency at 1500 ug/rat expressed as rats ovulating by total no. of rats (9/10). Type of assay: functional.
The species named for assay [17] is Rattus norvegicus. As to the kind of experiment: Antiovulatory potency at 100 ug/rat expressed as rats ovulating by total no. of rats (7/12). Type of assay: functional.
Assay [18] is filed under the species Rattus norvegicus. As to the kind of experiment: Antiovulatory potency at 10 ug/rat expressed as rats ovulating by total no. of rats (0/10). Format: functional.
For assay [19], the species on record is Rattus norvegicus. Description: Antiovulatory potency at 5 ug/rat expressed as rats ovulating by total no. of rats (4/10). Format: functional.

Bridge positions count the residues as written; N and C are the ends. Square brackets hold non-standard residues; d marks the D form. Peptide text beside a SMILES is read from it. dPhe(4-Cl) = N[C@H](Cc1ccc(Cl)cc1)C(=O)O; dPhe(4-F) = N[C@H](Cc1ccc(F)cc1)C(=O)O; d2Nal = N[C@H](Cc1ccc2ccccc2c1)C(=O)O; NMeL = CN[C@@H](CC(C)C)C(=O)O; ΔPro = O=C(O)[C@@H]1C=CCN1; Dap = NC[C@H](N)C(=O)O; βAla = NCCC(=O)O

The term Ki denotes a dissociation constant, usually derived from enzyme kinetics or from competition with a known ligand. A high value points to lower affinity. Molecule `CC(=O)N[C@@H]1CCC(=O)NCC(=O)NCCC[C@H]2NC(=O)[C@@H](CC(=O)NC[C@H](C(N)=O)NC(=O)[C@H]3CCCN3C(=O)[C@H](CCCN=C(N)N)NC(=O)[C@@H](CC(C)C)NC(=O)[C@@H](Cc3ccc4ccccc4c3)NC2=O)NC(=O)[C@@H](Cc2c[nH]c3ccccc23)NC(=O)[C@H](Cc2ccc(Cl)cc2)NC1=O` yielded an inhibition constant Ki in assay [1] of 1.1 nM. Also, the values for the Ovulating rats in [2], in [3] and in assay [4] were 5, 7 and 0, respectively.
In turn, `CC(=O)N[C@@H]1CC(=O)NCC(=O)NCCC[C@H]2NC(=O)[C@@H](CC(=O)NC[C@H](C(N)=O)NC(=O)[C@H]3CCCN3C(=O)[C@H](CCCN=C(N)N)NC(=O)[C@@H](CC(C)C)NC(=O)[C@@H](Cc3ccc4ccccc4c3)NC2=O)NC(=O)[C@@H](Cc2c[nH]c3ccccc23)NC(=O)[C@H](Cc2ccc(Cl)cc2)NC1=O` returned a Ki in assay [1] of 0.31 nM. The Ovulating rats is given as 3 in assay [5], 0 in assay [6], 2 in [7] and 3 in assay [8].
As for `CC(=O)N[C@@H]1CCC(=O)NCCCC[C@@H]2NC(=O)[C@H](CC(C)C)NC(=O)[C@@H](Cc3ccc4ccccc4c3)NC(=O)[C@H](CCCN=C(N)N)NC(=O)[C@H](CC(=O)NC[C@H](C(N)=O)NC(=O)[C@@H]3CCCN3C2=O)NC(=O)[C@@H](Cc2cccnc2)NC(=O)[C@H](Cc2ccc(Cl)cc2)NC1=O`, the affinity in [1] corresponds to a Ki of 1.8 nM. The Ovulating rats in assay [9] came to 2; in assay [10], 3.
On to `CC(=O)N[C@H]1CC(=O)NCC(=O)NCC[C@H]2NC(=O)[C@H](CC(=O)NC[C@@H](C(N)=O)NC(=O)[C@@H]3CCCN3C(=O)[C@H](CCCN=C(N)N)NC(=O)[C@H](CC(C)C)NC(=O)[C@@H](Cc3ccc4ccccc4c3)NC2=O)NC(=O)[C@@H](Cc2c[nH]c3ccccc23)NC(=O)[C@@H](Cc2ccc(Cl)cc2)NC1=O`, for which the Ovulating rats in assay [11] is on record as 4; in assay [12] it was 4; in assay [13], 0.
In the case of `CC(=O)N[C@@H]1CC(=O)NCCC(=O)NCC[C@H]2NC(=O)[C@@H](CC(=O)NC[C@H](C(N)=O)NC(=O)[C@H]3CCCN3C(=O)[C@H](CCCN=C(N)N)NC(=O)[C@@H](CC(C)C)NC(=O)[C@@H](Cc3ccc4ccccc4c3)NC2=O)NC(=O)[C@@H](Cc2c[nH]c3ccccc23)NC(=O)[C@H](Cc2ccc(Cl)cc2)NC1=O`, the Ki in [1] amounted to 0.15 nM. Further, the Ovulating rats in assay [14] worked out at 0; in assay [15] it was 1.
As for `CC(C)C[C@H]1C(=O)N[C@@H](CCCN=C(N)N)C(=O)N2CCC[C@H]2C(=O)NCCC(=O)N2CC=C[C@H]2C(=O)N[C@H](Cc2ccc(Cl)cc2)C(=O)N[C@H](Cc2c[nH]c3ccccc23)C(=O)N[C@@H](CO)C(=O)N[C@@H](Cc2ccc(O)cc2)C(=O)N[C@H](Cc2c[nH]c3ccccc23)C(=O)N1C` (cyclo([NMeL]RP[βAla][ΔPro][dPhe(4-Cl)][dW]SY[dW])), the Ovulating rats in [16] was 9.
Regarding `CC(=O)N[C@@H]1CSSC[C@H]2NC(=O)[C@@H](CC(=O)NC[C@H](C(N)=O)NC(=O)[C@H]3CCCN3C(=O)[C@H](CCCN=C(N)N)NC(=O)[C@@H](CC(C)C)NC(=O)[C@H](Cc3ccc4ccccc4c3)NC2=O)NC(=O)[C@@H](Cc2c[nH]c3ccccc23)NC(=O)[C@H](Cc2ccc(Cl)cc2)NC1=O`, in assay [1], the inhibitory constant (Ki) amounted to 5.7 nM. In addition, in assay [17], the Ovulating rats came to 7.
With `CC(=O)N1CC=C[C@H]1C(=O)N[C@H](Cc1ccc(F)cc1)C(=O)N[C@H](Cc1c[nH]c2ccccc12)C(=O)N[C@H]1CC(=O)NC[C@@H](C(N)=O)NC(=O)[C@@H]2CCCN2C(=O)[C@H](CCCN=C(N)N)NC(=O)[C@H](CC(C)C)NC(=O)[C@@H](Cc2ccc3ccccc3c2)NC(=O)[C@H](Cc2ccc(O)cc2)NC1=O` (Ac-[ΔPro][dPhe(4-F)][dW]DY[d2Nal]LRP[Dap]-NH2; lactam 4-10), the Ovulating rats in [18] is reported as 0; in assay [19], 4.

Values taken from ChEMBL document CHEMBL1132959, “Design of potent dicyclic (1-5/4-10) gonadotropin releasing hormone (GnRH) antagonists” (J Med Chem, 2000).
